Results from ChEMBL document CHEMBL1201862, “PubChem BioAssay data set” (2004).
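Values below derive from 48-hour exposures of cells grown in 96-well plates, with endpoints linearly interpolated between the two concentrations bracketing the appropriate inhibition level. At the GI50, growth is halved.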 Calls of active or inactive are those of the source. Cut-off read from the data, not from the text of the source: active = GI50 up to about 1.1 µM and inactive = higher.

Legend:
Assay in all cases: NCI tumour cell line growth inhibition, 48 h
OVCAR-4 = system: OVCAR-4
SN12C = system: SN12C
HL-60 = system: HL-60
SK-MEL-28 = system: SK-MEL-28
DMS-114 = system: DMS-114
SW-620 = system: SW-620
UO-31 = system: UO-31
CCRF-CEM = system: CCRF-CEM
M14 = system: M14
SK-OV-3 = system: SK-OV-3
A549 = system: A549
A498 = system: A498
SK-MEL-5 = system: SK-MEL-5
DLD-1 = system: DLD-1
RPMI-8226 = system: RPMI-8226
SNB-75 = system: SNB-75
HOP-62 = system: HOP-62
SF-539 = system: SF-539
XF498 = system: XF498
SNB-78 = system: SNB-78
CAKI-1 = system: CAKI-1
ACHN = system: ACHN
NCI-H522 = system: NCI-H522
OVCAR-5 = system: OVCAR-5
UACC-62 = system: UACC-62
KM-20L2 = system: KM-20L2
SR = system: SR
COLO 205 = system: COLO 205
HOP-92 = system: HOP-92
RXF 631 = system: RXF 631
HCC 2998 = system: HCC 2998
HT-29 = system: HT-29
RXF 393 = system: RXF 393
HCT-116 = system: HCT-116
SF-295 = system: SF-295
LOX IMVI = system: LOX IMVI
NCI-H460 = system: NCI-H460
786-0 = system: 786-0
UACC-257 = system: UACC-257
IGROV-1 = system: IGROV-1
U-251 = system: U-251
SK-MEL-2 = system: SK-MEL-2
NCI-H226 = system: NCI-H226
OVCAR-8 = system: OVCAR-8
MOLT-4 = system: MOLT-4
LXFL 529 = system: LXFL 529
NCI-H23 = system: NCI-H23
HCT-15 = system: HCT-15
M19-MEL = system: M19-MEL
OVCAR-3 = system: OVCAR-3
DMS-273 = system: DMS-273
Malme-3M = system: Malme-3M
EKVX = system: EKVX
KM12 = system: KM12
SNB-19 = system: SNB-19
SF-268 = system: SF-268
K562 = system: K562
TK-10 = system: TK-10
HOP-18 = system: HOP-18
T47D = system: T47D
MDA-MB-435 = system: MDA-MB-435
MDA-MB-231 = system: MDA-MB-231
DU-145 = system: DU-145
BT-549 = system: BT-549
NCI/ADR-RES = system: NCI/ADR-RES
Hs-578T = system: Hs-578T
MDA-N = system: MDA-N
PC-3 = system: PC-3
MCF7 = system: MCF7

SMILES: CCCCCC(O)(CCCCC)CCCCCCCCC1=C(O)C(=O)c2ccc(=O)[nH]c2C1=O
- GI50 (OVCAR-4): 1.87 µM (inactive)
- GI50 (SN12C): 7.64 µM (inactive)
- GI50 (HL-60): 4.92 µM (inactive)
- GI50 (SK-MEL-28): 8.32 µM (inactive)
- GI50 (DMS-114): 4.37 µM (inactive)
- GI50 (SW-620): 8 µM (inactive)
- GI50 (UO-31): 13.3 µM (inactive)
- GI50 (CCRF-CEM): 5.62 µM (inactive)
- GI50 (M14): 10 µM (inactive)
- GI50 (SK-OV-3): 15.9 µM (inactive)
- GI50 (A549): 5.41 µM (inactive)
- GI50 (A498): 12.2 µM (inactive)
- GI50 (SK-MEL-5): 3.78 µM (inactive)
- GI50 (DLD-1): 5.37 µM (inactive)
- GI50 (RPMI-8226): 4.12 µM (inactive)
- GI50 (SNB-75): 17.5 µM (inactive)
- GI50 (HOP-62): 10.4 µM (inactive)
- GI50 (SF-539): 7.6 µM (inactive)
- GI50 (XF498): 3.6 µM (inactive)
- GI50 (SNB-78): 21.2 µM (inactive)
- GI50 (CAKI-1): 11.2 µM (inactive)
- GI50 (ACHN): 6.37 µM (inactive)
- GI50 (NCI-H522): 4.78 µM (inactive)
- GI50 (OVCAR-5): 20.3 µM (inactive)
- GI50 (UACC-62): 3.2 µM (inactive)
- GI50 (KM-20L2): 13.1 µM (inactive)
- GI50 (SR): 27.3 µM (inactive)
- GI50 (COLO 205): 17.9 µM (inactive)
- GI50 (HOP-92): 13.3 µM (inactive)
- GI50 (RXF 631): 10.3 µM (inactive)
- GI50 (HCC 2998): 14.5 µM (inactive)
- GI50 (HT-29): 15.3 µM (inactive)
- GI50 (RXF 393): 9.38 µM (inactive)
- GI50 (HCT-116): 4.34 µM (inactive)
- GI50 (SF-295): 4.37 µM (inactive)
- GI50 (LOX IMVI): 11.7 µM (inactive)
- GI50 (NCI-H460): 8.85 µM (inactive)
- GI50 (786-0): 8.63 µM (inactive)
- GI50 (UACC-257): 3.64 µM (inactive)
- GI50 (IGROV-1): 5.53 µM (inactive)
- GI50 (U-251): 4.72 µM (inactive)
- GI50 (SK-MEL-2): 3.06 µM (inactive)
- GI50 (NCI-H226): 8.36 µM (inactive)
- GI50 (OVCAR-8): 9.06 µM (inactive)
- GI50 (MOLT-4): 6.3 µM (inactive)
- GI50 (LXFL 529): 3.94 µM (inactive)
- GI50 (NCI-H23): 2.61 µM (inactive)
- GI50 (HCT-15): 4.22 µM
- GI50 (M19-MEL): 3.88 µM (inactive)
- GI50 (OVCAR-3): 4.23 µM (inactive)
- GI50 (DMS-273): 3.59 µM (inactive)
- GI50 (Malme-3M): 3.75 µM (inactive)
- GI50 (EKVX): 13.4 µM (inactive)
- GI50 (KM12): 11 µM (inactive)
- GI50 (SNB-19): 5.48 µM (inactive)
- GI50 (SF-268): 5.02 µM (inactive)
- GI50 (K562): 5.07 µM (inactive)

SMILES: NC(=O)OCC(COc1ccc(Cl)cc1)OC(=O)c1ccccc1Cl (centres undefined)
- GI50 (SN12C): 16.6 µM (inactive)
- GI50 (HL-60): 21.9 µM (inactive)
- GI50 (SK-MEL-28): 18.6 µM (inactive)
- GI50 (DMS-114): 14.6 µM (inactive)
- GI50 (SW-620): 19 µM (inactive)
- GI50 (UO-31): 22.3 µM (inactive)
- GI50 (CCRF-CEM): 22.3 µM (inactive)
- GI50 (M14): 18.7 µM (inactive)
- GI50 (SK-OV-3): > 100 µM (inactive)
- GI50 (A549): 27.8 µM (inactive)
- GI50 (A498): > 100 µM (inactive)
- GI50 (SK-MEL-5): 19.1 µM (inactive)
- GI50 (DLD-1): 18.5 µM (inactive)
- GI50 (RPMI-8226): 21.8 µM (inactive)
- GI50 (SNB-75): 41.7 µM (inactive)
- GI50 (HOP-62): 20.9 µM (inactive)
- GI50 (SF-539): 19.1 µM (inactive)
- GI50 (SNB-78): 36.1 µM (inactive)
- GI50 (CAKI-1): 26.5 µM (inactive)
- GI50 (ACHN): 31.6 µM (inactive)
- GI50 (NCI-H522): 16.9 µM (inactive)
- GI50 (OVCAR-5): 20.6 µM (inactive)
- GI50 (UACC-62): 17.2 µM (inactive)
- GI50 (KM-20L2): 19.3 µM (inactive)
- GI50 (SR): 25.6 µM (inactive)
- GI50 (COLO 205): 17.5 µM (inactive)
- GI50 (HOP-92): 17.1 µM (inactive)
- GI50 (RXF 631): 20.3 µM (inactive)
- GI50 (TK-10): 28.8 µM (inactive)
- GI50 (HCC 2998): 23.8 µM (inactive)
- GI50 (HOP-18): 26.1 µM (inactive)
- GI50 (HT-29): 17.6 µM (inactive)
- GI50 (RXF 393): 12.6 µM (inactive)
- GI50 (HCT-116): 17 µM (inactive)
- GI50 (SF-295): 25.4 µM (inactive)
- GI50 (LOX IMVI): 13.8 µM (inactive)
- GI50 (NCI-H460): 16.8 µM (inactive)
- GI50 (786-0): 19.4 µM (inactive)
- GI50 (UACC-257): 19 µM (inactive)
- GI50 (IGROV-1): 25.5 µM (inactive)
- GI50 (U-251): 14.1 µM (inactive)
- GI50 (SK-MEL-2): 17.3 µM (inactive)
- GI50 (NCI-H226): 25.1 µM (inactive)
- GI50 (OVCAR-8): 23.4 µM (inactive)
- GI50 (MOLT-4): 21 µM (inactive)
- GI50 (LXFL 529): 24.1 µM (inactive)
- GI50 (NCI-H23): 20.5 µM (inactive)
- GI50 (HCT-15): 16.4 µM
- GI50 (OVCAR-3): 20.3 µM (inactive)
- GI50 (DMS-273): 20.5 µM (inactive)
- GI50 (Malme-3M): 20.3 µM (inactive)
- GI50 (EKVX): 25.4 µM (inactive)
- GI50 (KM12): 21.6 µM (inactive)
- GI50 (SNB-19): 28.1 µM (inactive)
- GI50 (SF-268): 24.8 µM (inactive)
- GI50 (K562): 20.7 µM (inactive)

SMILES: Cc1nc(-n2nc(-c3ccccc3)cc2-c2ccccc2)sc1C(=O)/C=C/c1ccc([N+](=O)[O-])cc1
- GI50 (OVCAR-4): 34.1 µM (inactive)
- GI50 (SN12C): 29.1 µM (inactive)
- GI50 (HL-60): 17.2 µM (inactive)
- GI50 (SK-MEL-28): 28.7 µM (inactive)
- GI50 (SW-620): 21.4 µM (inactive)
- GI50 (UO-31): 14 µM (inactive)
- GI50 (CCRF-CEM): 14 µM (inactive)
- GI50 (M14): 27.6 µM (inactive)
- GI50 (SK-OV-3): > 65.8 µM (inactive)
- GI50 (A549): > 59.7 µM (inactive)
- GI50 (A498): > 43.8 µM (inactive)
- GI50 (SK-MEL-5): 16.6 µM (inactive)
- GI50 (T47D): 9.25 µM (inactive)
- GI50 (MDA-MB-435): 16 µM (inactive)
- GI50 (DLD-1): 15.3 µM (inactive)
- GI50 (RPMI-8226): 10.5 µM (inactive)
- GI50 (SNB-75): 2.69 µM (inactive)
- GI50 (HOP-62): 20.1 µM (inactive)
- GI50 (SF-539): 11.2 µM (inactive)
- GI50 (SNB-78): 61.9 µM (inactive)
- GI50 (CAKI-1): 24.9 µM (inactive)
- GI50 (MDA-MB-231): 33.1 µM (inactive)
- GI50 (ACHN): 26.5 µM (inactive)
- GI50 (NCI-H522): 16.5 µM (inactive)
- GI50 (OVCAR-5): > 59.4 µM (inactive)
- GI50 (DU-145): 21.8 µM (inactive)
- GI50 (UACC-62): 19.4 µM (inactive)
- GI50 (KM-20L2): 33.7 µM (inactive)
- GI50 (SR): 2.86 µM (inactive)
- GI50 (BT-549): 13.2 µM (inactive)
- GI50 (COLO 205): 24.4 µM (inactive)
- GI50 (HOP-92): > 56.5 µM (inactive)
- GI50 (NCI/ADR-RES): 17.2 µM (inactive)
- GI50 (RXF 631): 23 µM (inactive)
- GI50 (TK-10): 41.5 µM (inactive)
- GI50 (HCC 2998): 16.2 µM (inactive)
- GI50 (HOP-18): > 100 µM (inactive)
- GI50 (HT-29): 16.3 µM (inactive)
- GI50 (RXF 393): 16.7 µM (inactive)
- GI50 (HCT-116): 12.7 µM (inactive)
- GI50 (Hs-578T): 27.7 µM (inactive)
- GI50 (SF-295): > 46.6 µM (inactive)
- GI50 (LOX IMVI): 15.7 µM (inactive)
- GI50 (NCI-H460): 25.2 µM (inactive)
- GI50 (MDA-N): 19.2 µM (inactive)
- GI50 (PC-3): 17.2 µM (inactive)
- GI50 (786-0): 13 µM (inactive)
- GI50 (UACC-257): 34.5 µM (inactive)
- GI50 (IGROV-1): 20.5 µM (inactive)
- GI50 (U-251): 16 µM (inactive)
- GI50 (SK-MEL-2): 43.1 µM (inactive)
- GI50 (NCI-H226): 57.8 µM (inactive)
- GI50 (OVCAR-8): 17.7 µM (inactive)
- GI50 (MOLT-4): 10.9 µM (inactive)
- GI50 (NCI-H23): 18.4 µM (inactive)
- GI50 (HCT-15): 14 µM
- GI50 (M19-MEL): 20.3 µM (inactive)
- GI50 (MCF7): 5.74 µM (inactive)
- GI50 (OVCAR-3): 10.4 µM (inactive)
- GI50 (DMS-273): 20.8 µM (inactive)
- GI50 (Malme-3M): 34.2 µM (inactive)
- GI50 (EKVX): > 43 µM (inactive)
- GI50 (KM12): 9.29 µM (inactive)
- GI50 (SNB-19): 24.2 µM (inactive)
- GI50 (SF-268): 16.7 µM (inactive)
- GI50 (K562): 14.2 µM (inactive)
